Test results published in patent publication US6335372B1, “Treatment of obsessive compulsive disorder” (Orion Corporation, priority 2000, dated 2002).

Tested on: obsessive-compulsive symptoms
Experiment: Treatment of two patients having obsessive-compulsive symptoms with deramciclane
Type: in vivo
Settings: one 15 mg tablet twice daily (30 mg/day), 8 week treatment period
Protocol: The efficacy of deramciclane in the treatment of OCD, is illustrated with two patients having obsessive-compulsive symptoms. These patients received one 15 mg tablet of deramciclane twice daily (=30 mg/day) for an eight-week active treatment period.

CN(C)CCO[C@]1(c2ccccc2)C[C@H]2CC[C@]1(C)C2(C)C [deramciclane, (1R,2S,4R)-(−)-2-phenyl 2-(dimethylaminoethoxy)-1,7,7-trimethyl-bicyclo[2.2.1]heptane] was tested, and the “obsessive-compulsive symptoms as assessed by the responsible physician” value was “reduced in a clinically significant way”.
